Source: ChEMBL document CHEMBL1201862, “PubChem BioAssay data set” (2004)
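Exposure lasted 48 hours, with cells grown in 96-well plates and compounds tested at five concentrations. Abbreviation: GI50, concentration required for 50% inhibition of growth.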 Active and inactive are the calls of the source. No stated cut-off is given here; in the data, active = GI50 up to about 1.1 µM and inactive = higher.

Columns and labels:
Experiment in all cases: NCI anticancer screen, dose series, 48 h
[1] = system: SNB-75
[2] = system: KM12
[3] = system: COLO 205
[4] = system: OVCAR-4
[5] = system: SF-295
[6] = system: SK-MEL-5
[7] = system: NCI-H226
[8] = system: OVCAR-3
[9] = system: IGROV-1
[10] = system: UACC-62
[11] = system: HCT-116
[12] = system: M19-MEL
[13] = system: Malme-3M
[14] = system: OVCAR-8
[15] = system: KM-20L2
[16] = system: A549
[17] = system: EKVX
[18] = system: DLD-1
[19] = system: HT-29
[20] = system: A498
[21] = system: SW-620
[22] = system: SF-539
[23] = system: CCRF-CEM
[24] = system: SNB-78
[25] = system: RPMI-8226
[26] = system: U-251
[27] = system: NCI-H522
[28] = system: XF498
[29] = system: NCI-H460
[30] = system: HCT-15
[31] = system: SK-MEL-28
[32] = system: NCI-H23
[33] = system: DMS-273
[34] = system: K562
[35] = system: HCC 2998
[36] = system: SK-OV-3
[37] = system: SN12C
[38] = system: UACC-257
[39] = system: MCF7
[40] = system: SK-MEL-2
[41] = system: UO-31
[42] = system: MOLT-4
[43] = system: DMS-114
[44] = system: NCI/ADR-RES
[45] = system: OVCAR-5
[46] = system: SNB-19
[47] = system: RXF 393
[48] = system: SF-268
[49] = system: HOP-62
[50] = system: LOX IMVI
[51] = system: HL-60
[52] = system: HOP-18
[53] = system: M14
[54] = system: TK-10
[55] = system: LXFL 529
[56] = system: CAKI-1
[57] = system: 786-0
[58] = system: ACHN
[59] = system: SR

SMILES: COc1nc(SC)nc2c1cnn2C1OC(C(O)CO)C(OC)C1O (centres undefined)
- GI50 [1]: 48.4 µM (inactive)
- GI50 [2]: > 78.9 µM (inactive)
- GI50 [3]: > 74.5 µM (inactive)
- GI50 [4]: 69.3 µM (inactive)
- GI50 [5]: > 100 µM (inactive)
- GI50 [6]: > 100 µM (inactive)
- GI50 [7]: > 100 µM (inactive)
- GI50 [8]: 99.3 µM (inactive)
- GI50 [9]: > 100 µM (inactive)
- GI50 [10]: > 65.6 µM (inactive)
- GI50 [11]: 78.2 µM (inactive)
- GI50 [12]: > 75.5 µM (inactive)
- GI50 [13]: > 100 µM (inactive)
- GI50 [14]: > 100 µM (inactive)
- GI50 [15]: > 85.9 µM (inactive)
- GI50 [16]: 52.1 µM (inactive)
- GI50 [17]: > 100 µM (inactive)
- GI50 [18]: > 100 µM (inactive)
- GI50 [19]: 52.4 µM (inactive)
- GI50 [20]: > 100 µM (inactive)
- GI50 [21]: > 100 µM (inactive)
- GI50 [22]: > 100 µM (inactive)
- GI50 [23]: 58.7 µM (inactive)
- GI50 [24]: > 85.9 µM (inactive)
- GI50 [25]: 63.8 µM (inactive)
- GI50 [26]: > 100 µM (inactive)
- GI50 [27]: > 100 µM (inactive)
- GI50 [28]: > 100 µM (inactive)
- GI50 [29]: 74.6 µM (inactive)
- GI50 [30]: > 83 µM
- GI50 [31]: > 100 µM (inactive)
- GI50 [32]: > 100 µM (inactive)
- GI50 [33]: > 100 µM (inactive)
- GI50 [34]: > 100 µM (inactive)
- GI50 [35]: > 100 µM (inactive)
- GI50 [36]: > 100 µM (inactive)
- GI50 [37]: > 100 µM (inactive)
- GI50 [38]: > 75.7 µM (inactive)
- GI50 [39]: > 62.4 µM (inactive)
- GI50 [40]: > 100 µM (inactive)
- GI50 [41]: 34.9 µM (inactive)
- GI50 [42]: 14 µM (inactive)
- GI50 [43]: > 80 µM (inactive)
- GI50 [44]: > 100 µM (inactive)
- GI50 [45]: > 100 µM (inactive)
- GI50 [46]: > 100 µM (inactive)
- GI50 [47]: > 83.2 µM (inactive)
- GI50 [48]: > 92.7 µM (inactive)
- GI50 [49]: > 100 µM (inactive)
- GI50 [50]: > 100 µM (inactive)
- GI50 [51]: 52.7 µM (inactive)
- GI50 [52]: > 100 µM (inactive)

SMILES: Cc1cc(Br)ccc1NC1=CC(=O)C(=O)c2ccccc21
- GI50 [1]: 41.1 µM (inactive)
- GI50 [2]: 38.5 µM (inactive)
- GI50 [3]: 31.6 µM (inactive)
- GI50 [4]: 9.08 µM (inactive)
- GI50 [5]: 38.5 µM (inactive)
- GI50 [6]: 20 µM (inactive)
- GI50 [7]: 39.8 µM (inactive)
- GI50 [53]: 52.1 µM (inactive)
- GI50 [8]: 35 µM (inactive)
- GI50 [9]: 77.6 µM (inactive)
- GI50 [10]: 20 µM (inactive)
- GI50 [11]: 52.7 µM (inactive)
- GI50 [12]: 15.2 µM (inactive)
- GI50 [13]: 24.3 µM (inactive)
- GI50 [14]: 42.2 µM (inactive)
- GI50 [15]: > 100 µM (inactive)
- GI50 [16]: 39.1 µM (inactive)
- GI50 [17]: > 100 µM (inactive)
- GI50 [18]: > 100 µM (inactive)
- GI50 [19]: 51.2 µM (inactive)
- GI50 [20]: 86.7 µM (inactive)
- GI50 [21]: 29.9 µM (inactive)
- GI50 [22]: 74.8 µM (inactive)
- GI50 [54]: 99.8 µM (inactive)
- GI50 [23]: 35.1 µM (inactive)
- GI50 [24]: > 100 µM (inactive)
- GI50 [25]: 36.9 µM (inactive)
- GI50 [26]: 26.4 µM (inactive)
- GI50 [27]: 30.8 µM (inactive)
- GI50 [28]: 31.6 µM (inactive)
- GI50 [29]: 27.9 µM (inactive)
- GI50 [30]: 55.2 µM
- GI50 [31]: 45.3 µM (inactive)
- GI50 [55]: 55.7 µM (inactive)
- GI50 [32]: 10.9 µM (inactive)
- GI50 [33]: 31.4 µM (inactive)
- GI50 [56]: 28.1 µM (inactive)
- GI50 [34]: 51.4 µM (inactive)
- GI50 [35]: 62.1 µM (inactive)
- GI50 [36]: 49.3 µM (inactive)
- GI50 [37]: 60.1 µM (inactive)
- GI50 [38]: 15.9 µM (inactive)
- GI50 [40]: 23.6 µM (inactive)
- GI50 [57]: 38.5 µM (inactive)
- GI50 [41]: 94.6 µM (inactive)
- GI50 [42]: 39.4 µM (inactive)
- GI50 [43]: 19.8 µM (inactive)
- GI50 [45]: 70.8 µM (inactive)
- GI50 [46]: 24.2 µM (inactive)
- GI50 [47]: 30.5 µM (inactive)
- GI50 [48]: 47.4 µM (inactive)
- GI50 [49]: > 100 µM (inactive)
- GI50 [58]: 36.4 µM (inactive)
- GI50 [50]: 21.4 µM (inactive)
- GI50 [51]: 13.6 µM (inactive)
- GI50 [59]: 15.5 µM (inactive)
- GI50 [52]: 16 µM (inactive)
